{
  "source": "patent US5498522A",
  "about": "“Methods for the use of spermidine/spermine N^1 -acetyltransferase as a prognostic indicator and/or a tumor response marker” (priority 1993, dated 1996)",
  "key": {"[1]": {"system": "spermidine/spermine N^1 -acetyltransferase (SSAT)", "assay": "SSAT induction in human tumor xenografts in athymic mice in-vivo", "settings": "for level of induction of SSAT: 40 mg/kg every 8 hours for 5 days, 16 hours after final injection; for Avg. SSAT Activity: measured 24 hours after final treatment (Table 8)", "experimental": "For the in-vivo treatment, 10^7 cultured MALME-3 melanoma cells were injected subcutaneously into 20 gram female nude athymic mice. After four in-vivo passages, tumor was removed and 40-50 mm^3 fragments were selected for implantation into mice via subcutaneous trocar implantation. Mice developing palpable tumors of a similar size were divided into different treatment groups comprising mice per group. Following treatment of the mice with a dosage approaching the maximally tolerated dose of the respective bis-ethyl spermine analog, the tumor cells comprising the human xenograft were removed and assayed for SSAT induction. […] Also indicated in Table 1, the level of SSAT induction in-vivo by BESPM was less than 20 fold that of BEHSPM, and the level of SSAT induction in-vivo by BENSPM was about 6 fold greater than that of BESPM. Thus, a conclusion from the results depicted in Table 1 is the rank order in effectiveness of the his-ethyl spermine analogs to induce SSAT levels in-vitro correlated well with their effectiveness to induce SSAT levels in-vivo.\nIn accordance with the above methods for assaying the induction of SSAT levels in tumor cell lines treated in-vitro and xenografts treated in-vivo, the induction pattern also correlates fairly well amongst different clonal lines of a particular tumor type. This can be illustrated with melanoma clonal lines LOX, SH-1, PANUT-3, and MALME-3.\nIn accordance with the above methods for assaying the induction of SSAT levels in tumor cell lines treated in-vitro and xenografts treated in-vivo, the induction pattern also correlates fairly well amongst carcinomas of solid organs. This can be illustrated with malignant clonal lines A121, A549, and HT29.\nNote that the highest drug dosages for each analog approach the maximally tolerated dosage for that particular analog (for example, BEHSPM at 6 mg/kg; BESPM at […]; and BENSPN at 80 mg/kg were tolerated by treated animals, whereas higher doses were toxic). Tumor cells comprising the human xenograft were removed from two animals of each group and assayed for SSAT induction. […] Thus, the antitumor activity for these three analogs correlated with their ability to induce SSAT activity in the same tumor cells growing in-vitro and in-vivo, with the rank order of effectiveness in inducing SSAT levels being: BENSPM>BESPM>BEHSPM (Table 4).\nAdditional studies were performed using BENSPM treatment of human xenografts to determine if there exists a correlation between antitumor activity and SSAT induction in-vivo. SSAT activity was measured using cell extracts obtained by sonication, in 5 mMN-2 hydroxypiperazine-N^2 -ethanesulfonic acid (pH 7.2) containing 1 mM dithiothreitol, of tumor biopsy from treated mice, and tumor biopsy from control mice. The cytosolic extract resulting from a 1 hour centrifugation at 35,000 rpm in a Spinco 40 rotor was used as the source of the enzyme for the assay of SSAT activity. The cytosolic extract was incubated with 10 μmol HEPES buffer, pH7.8, 0.15 nmol spermidine, and 0.5 nmol [1-^14 C] acetylCoenzyme A, in a final volume of 50 μl, for 5 minutes at 37° C. The reaction was stopped by chilling, the addition of 20 μl of 0.5 M NH2 OH.Cl, and heating in a boiling water bath for 3 minutes. After centrifugation to remove precipitated protein, 50 μl of the reaction was spotted on a disc of P-81 phosphocellulose and counted for radioactivity. Protein concentration was also measured so that enzyme activity was expressed as picomoles of acetylspermine synthesized per minute per milligram of protein.\nTo illustrate this embodiment, SSAT activity was analyzed in tumor tissue and normal tissue from 2 mice following BENSPM treatment of 5 mice at 40 mg/kg, three times daily, for 6 days (Porter et al., 1993, supra). […]"}, "[2]": {"assay": "tolerated dose / host toxicity in xenograft-bearing mice", "settings": "mouse, in vivo, every 8 hours for 6 days, read-out: tolerated dose (higher doses were toxic)", "experimental": "[…] where 1 represents length; w--width; and h--height. Tumor sizes were monitored 2 times/week until the median volume (V=0.4(a^2 ×b) where a is the smaller of the two perpendicular tumor diameters). As an indication of drug toxicity, animal weights were also recorded at the time of tumor volume measurement. Statistical analyses were performed on mouse tumor size and weight parameters by using the Mann-Whitney test.\nAs illustrated in Table 1 with MALME-3 human melanoma cells, the rank order effectiveness of three polyamine analogs in inducing SSAT levels both in-vitro and in-vivo were BENSPM>BESPM>BEHSPM, with substantial differences in induction between them. The same three polyamine analogs were analyzed for their effectiveness in inducing a potent antitumor response in-vivo. Mice developing palpable tumors of a similar size were divided into different treatment groups comprising 5 mice per treatment group, and 10 control mice per treatment group. The treatment groups, and treatment regimen. per group, were as follows: BEHSPM: administered every 8 hours for a 6 day period with group 1 receiving 1.5 mg/kg; group 2 receiving 3.0 mg/kg; and group 3 receiving 6.0 mg/kg.\nBESPM: administered every 8 hours for a 6 day period with group 1 receiving 10 mg/kg; group 2 receiving 20 mg/kg; and group 3 receiving 40 mg/kg.\nBENSPM: administered every 8 hours for a 6 day period with group 1 receiving 20 mg/kg; group 2 receiving 40 mg/kg; and group 3 receiving 80 mg/kg.\nNote that the highest drug dosages for each analog approach the maximally tolerated dosage for that particular analog (for example, BEHSPM at 6 mg/kg; BESPM at 20 mg/kg; and BENSPN at 80 mg/kg were tolerated by treated animals, whereas higher doses were toxic). Tumor cells comprising the human xenograft were removed from two animals of each group and assayed for SSAT induction. […]"}, "[3]": {"assay": "BENSPM (analog) pools in tumor and host tissue", "format": "in vivo, mouse", "parameters": "BENSPM pool (tissue content): unit not given here"}, "[4]": {"system": "spermidine/spermine N^1 -acetyltransferase (SSAT)", "settings": "cited from earlier work"}, "cell growth": {"system": "cell growth", "settings": "in-vitro; cited from earlier work"}, "[5]": {"settings": "MALME-3 xenograft, maximally tolerated dose, every 8 hours for 6 days"}},
  "data": [
    {"compound": "CCNCCCCNCCCCNCCCCNCC", "note": "[BEHSPM, N^1,N^14 -bis(ethyl)homospermine]", "values": [
      {"measurement": "SSAT induction in-vivo", "setting": "[1]; [5]", "value": 125, "unit": "pmol/min/mg"},
      {"measurement": "MTD at 144 h", "setting": "[2]", "value": 6, "unit": "mg/kg"}
    ]},
    {"compound": "CCNCCCNCCCNCCCNCC", "note": "[BENSPM, N^1,N^11 -bis(ethyl)norspermine]", "values": [
      {"measurement": "SSAT induction in-vivo", "setting": "[1]; A121 xenograft, BENSPM 40 mg/kg 3x/day 6 days, 16 hours post-treatment", "value": "2,905 pmol/min/mg"},
      {"measurement": "SSAT activity", "setting": "[1]; A121 xenograft, measured 24 hours after final treatment (Table 9)", "value": 2905, "unit": "pmol/min/mg"},
      {"measurement": "SSAT induction in-vivo", "setting": "[1]; A549 xenograft, BENSPM 40 mg/kg 3x/day 6 days, 16 hours post-treatment", "value": "14,295 pmol/min/mg"},
      {"measurement": "SSAT activity", "setting": "[1]; A549 xenograft, measured 24 hours after final treatment (Table 9)", "value": 14295, "unit": "pmol/min/mg"},
      {"measurement": "SSAT induction in-vivo", "setting": "[1]; HT29 xenograft, BENSPM 40 mg/kg 3x/day 6 days, 16 hours post-treatment", "value": "3,535 pmol/min/mg"},
      {"measurement": "SSAT activity", "setting": "[1]; HT29 xenograft, measured 24 hours after final treatment (Table 9)", "value": 3535, "unit": "pmol/min/mg"},
      {"measurement": "level of induction of SSAT", "setting": "[1]; LOX xenograft", "value": 160, "unit": "pmol/mg/min"},
      {"measurement": "SSAT induction in-vivo", "setting": "[1]; LOX xenograft, BENSPM 40 mg/kg 3x/day 6 days, 16 hours post-treatment", "value": "160 (200/115) pmol/min/mg"},
      {"measurement": "Avg. SSAT Activity", "setting": "[1]; LOX xenograft", "value": 157, "unit": "pmol/min/mg"},
      {"measurement": "Avg. SSAT Activity", "setting": "[1]; MALME-3M xenograft", "value": "13,710 pmol/min/mg"},
      {"measurement": "SSAT induction in-vivo relative to BESPM", "setting": "[1]; MALME-3 xenograft", "value": "about 6 fold"},
      {"measurement": "level of induction of SSAT", "setting": "[1]; MALME-3 xenograft", "value": "24,018 pmol/mg/min"},
      {"measurement": "SSAT induction in-vivo", "setting": "[1]; MALME-3 xenograft, BENSPM 40 mg/kg 3x/day 6 days, 16 hours post-treatment (Table 2)", "value": "13,710 (11,490/15,930) pmol/min/mg"},
      {"measurement": "SSAT induction in-vivo", "setting": "[1]; [5]", "value": "15,700 pmol/min/mg"},
      {"measurement": "SSAT activity", "setting": "[1]; PANUT-3 tumor, 80 mg/kg, 2 wks post-treatment", "value": 130, "unit": "pmol/min/mg"},
      {"measurement": "SSAT induction in-vivo", "setting": "[1]; PANUT-3 xenograft, BENSPM 40 mg/kg 3x/day 6 days, 16 hours post-treatment", "value": "25,575 (23,140/22,010) pmol/min/mg"},
      {"measurement": "Avg. SSAT Activity", "setting": "[1]; PANUT-3 xenograft", "value": "22,750 pmol/min/mg"},
      {"measurement": "SSAT induction in-vivo", "setting": "[1]; SH-1 xenograft, BENSPM 40 mg/kg 3x/day 6 days, 16 hours post-treatment", "value": "7,150 (7,495/6,810) pmol/min/mg"},
      {"measurement": "Avg. SSAT Activity", "setting": "[1]; SH-1 xenograft", "value": "7,150 pmol/min/mg"},
      {"measurement": "SSAT induction, relative", "setting": "[1]; treated in-vitro and in-vivo, compared to two other analogs", "value": "greatest induction of SSAT"},
      {"measurement": "BENSPM pool (tissue content)", "setting": "[3]; MALME-3 tumor, 40 mg/kg 3x/day 6 days, 16 hrs post-treatment", "value": "1020/1535"},
      {"measurement": "BENSPM pool (tissue content)", "setting": "[3]; MALME-3 tumor, 40 mg/kg, 2 wks post-treatment", "value": "620/470"},
      {"measurement": "BENSPM pool (tissue content)", "setting": "[3]; kidney, 40 mg/kg, 2 wks post-treatment", "value": "90/150"},
      {"measurement": "BENSPM pool (tissue content)", "setting": "[3]; kidney, 40 mg/kg, 16 hrs post-treatment", "value": "860/1705"},
      {"measurement": "BENSPM pool (tissue content)", "setting": "[3]; liver, 40 mg/kg, 2 wks post-treatment", "value": "40/40"},
      {"measurement": "BENSPM pool (tissue content)", "setting": "[3]; liver, 40 mg/kg, 16 hrs post-treatment", "value": "1180/1470"},
      {"measurement": "metabolite peak of BENSPM", "setting": "[3]; tumor, kidney and liver, 40 mg/kg, 16 hrs post-treatment", "value": "a peak which was similar in height to the SPM peak"},
      {"measurement": "MTD at 144 h", "setting": "[2]", "value": 80, "unit": "mg/kg"},
      {"measurement": "SSAT induction in-vitro, PANUT-3 versus MALME-3", "setting": "[4]; BENSPM", "value": "induced to greater levels in PANUT-3 than in MALME-3"}
    ]},
    {"compound": "CCNCCCNCCCCNCCCNCC", "note": "[BESPM, N^1,N^12-bis(ethyl)spermine]", "values": [
      {"measurement": "SSAT induction in-vivo relative to BEHSPM", "setting": "[1]; MALME-3 xenograft", "value": "less than 20 fold"},
      {"measurement": "MTD at 144 h", "setting": "[2]", "value": 20, "unit": "mg/kg"},
      {"measurement": "SSAT levels after treatment", "setting": "[4]; MALME-3, in-vitro", "value": "extreme induction of SSAT levels"},
      {"measurement": "concentration inhibiting cell growth", "setting": "cell growth", "value": "1 to 10", "unit": "µM"}
    ]}
  ]
}
